Measured values reported in PubChem BioAssay (NCI).
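Method: 48-hour compound exposure of cells in 96-well plates, five concentrations, linear interpolation of endpoints. GI50 is the concentration that inhibits growth by half. TGI denotes the concentration required for complete inhibition of growth.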

Legend:
Assay in all cases: NCI anticancer screen, dose series, 48 h
CCRF-CEM leukemia = system: CCRF-CEM leukemia
NCI-H23 lung = system: NCI-H23 lung
OVCAR-5 ovarian = system: OVCAR-5 ovarian
RXF 393 renal = system: RXF 393 renal
SK-OV-3 ovarian = system: SK-OV-3 ovarian
SNB-78 CNS = system: SNB-78 CNS
HT29 colon = system: HT29 colon
XF 498 CNS = system: XF 498 CNS
HS 578T breast = system: HS 578T breast
NCI/ADR-RES ovarian = system: NCI/ADR-RES ovarian

Structure (SMILES) | TGI (CCRF-CEM leukemia) [µM] | TGI (NCI-H23 lung) [µM] | TGI (OVCAR-5 ovarian) [µM] | TGI (RXF 393 renal) [µM] | TGI (SK-OV-3 ovarian) [µM] | TGI (SNB-78 CNS) [µM] | TGI (HT29 colon) [µM] | TGI (XF 498 CNS) [µM] | GI50 (CCRF-CEM leukemia) [µM] | GI50 (NCI-H23 lung) [µM] | GI50 (OVCAR-5 ovarian) [µM] | GI50 (RXF 393 renal) [µM] | GI50 (SK-OV-3 ovarian) [µM] | GI50 (XF 498 CNS) [µM] | GI50 (HS 578T breast) [µM] | TGI (HS 578T breast) [µM] | GI50 (HT29 colon) [µM] | GI50 (NCI/ADR-RES ovarian) [µM] | TGI (NCI/ADR-RES ovarian) [µM]
OCc1c[te]c(-c2ccccc2)c1 | > 100 | 62.8 | > 100 | > 100 | > 100 | > 100 | – | – | – | – | – | – | – | – | – | – | – | – | –
CCNC(=O)O/N=C1\CCC2[C@@H]3CC=C4C[C@@H](OC5CCCCO5)CC[C@]4(C)C3CC[C@]12C (stereo partly specified) | – | 11.1 | 13 | 5.64 | 17.3 | 6.42 | 13.3 | – | – | – | – | – | – | – | – | – | – | – | –
N/N=c1\c2ccccc2c2cc3c(cc12)/c(=N/N)c1ccccc13 | > 100 | > 100 | > 100 | > 100 | > 100 | > 100 | > 100 | – | – | – | – | – | – | – | – | – | – | – | –
C=C(C(=C)P(=S)(c1ccccc1)c1ccccc1)P(=S)(c1ccccc1)c1ccccc1 | > 100 | > 100 | > 100 | > 100 | > 100 | > 100 | > 100 | > 100 | – | – | – | – | – | – | – | – | – | – | –
CC#CC1C2CCCC1(CSc1ccccc1)NC(=O)O2 (stereo unspecified) | – | > 100 | > 100 | > 100 | > 100 | > 100 | > 100 | > 100 | – | – | – | – | – | – | – | – | – | – | –
COc1ccc2nc3cc(Cl)ccc3c(Sc3ccc([N+](=O)[O-])cc3)c2c1 | > 100 | > 100 | > 100 | > 100 | > 100 | > 10 | > 100 | > 100 | > 100 | > 100 | > 100 | > 100 | > 100 | > 100 | – | – | – | – | –
CN1CCN(C)C12C=CC=CC21CC1 | > 100 | > 100 | > 100 | > 100 | > 100 | > 100 | > 100 | > 100 | – | – | – | – | – | – | – | – | – | – | –
Cc1ccccc1-n1c2nc(=O)n(C)c(=O)c-2nc2ccccc21 | 40.4 | 24.6 | 34.9 | 39.2 | > 100 | 43.1 | 14.3 | 31.3 | – | – | – | – | – | – | – | – | – | – | –
COc1ccccc1NC(=O)c1nc2ccc([N+](=O)[O-])cc2nc1C | > 100 | > 100 | > 100 | – | > 100 | – | > 100 | 73.8 | – | – | – | – | – | – | – | – | – | – | –
NCCNCc1c2ccccc2c(CNCCN)c2ccccc12 | 86.2 | 35.2 | 97.5 | 38.6 | – | 82.1 | > 100 | – | – | – | – | – | – | – | – | – | – | – | –
Cc1ccc(S(=O)OCC23CC4CC(CC(C4)C2)C3)cc1 (stereo unspecified) | – | > 100 | > 100 | > 100 | > 100 | > 100 | > 100 | > 100 | – | – | – | – | – | – | – | – | – | – | –
COC(=O)C1=C(C(=O)OC)C2(C)Nc3ccccc3C2=C(c2ccccc2)C1 (stereo unspecified) | 47.4 | 45.7 | 62.7 | 54.3 | – | 46.9 | 70.6 | 27 | – | – | – | – | – | – | – | – | – | – | –
CC1(c2ccccc2)CC(c2cccc([N+](=O)[O-])c2)=NO1 (stereo unspecified) | – | > 100 | > 100 | – | > 100 | > 100 | > 100 | – | – | – | – | – | – | – | – | – | – | – | –
Clc1ccc(-c2cc(-c3ccccc3)nc(NCCNc3ccnc4cc(Cl)ccc34)n2)cc1 | 5.56 | 3.6 | 3.06 | 2.8 | 3.29 | – | 3.26 | – | 2.14 | 1.76 | 1.67 | 1.19 | 1.71 | – | 1.88 | 4.19 | 1.67 | 1.66 | 3.4
O=C(Nc1ccc(/C=C/c2ccc(NC(=O)c3cc(S(=O)(=O)O)c4cccnc4c3O)cc2S(=O)(=O)O)c(S(=O)(=O)O)c1)c1cc(S(=O)(=O)O)c2cccnc2c1O | > 29.1 | > 42 | > 56.9 | > 53.6 | > 100 | – | > 100 | – | 3.15 | 6.65 | > 20.2 | 20.9 | > 38.9 | – | > 53.1 | > 74.8 | 32.1 | > 56.2 | > 100
O=C1OCC2=C1C(c1ccc(Cl)c(Cl)c1)c1cc3c(cc1N2CCO)CCC3 (stereo unspecified) | 13.6 | 12.2 | 15.3 | 1.46 | 6 | – | 0.646 | – | 0.257 | 0.239 | 0.336 | 0.141 | 0.211 | – | 0.232 | 14.3 | 0.164 | 0.123 | 2.3

Structure (SMILES) | TGI (CCRF-CEM leukemia) [µM] | TGI (NCI-H23 lung) [µM] | TGI (OVCAR-5 ovarian) [µM] | TGI (RXF 393 renal) [µM] | TGI (SK-OV-3 ovarian) [µM] | TGI (SNB-78 CNS) [µM] | TGI (HT29 colon) [µM] | TGI (XF 498 CNS) [µM] | GI50 (CCRF-CEM leukemia) [µM] | GI50 (NCI-H23 lung) [µM] | GI50 (OVCAR-5 ovarian) [µM] | GI50 (RXF 393 renal) [µM] | GI50 (SK-OV-3 ovarian) [µM] | GI50 (XF 498 CNS) [µM] | GI50 (HS 578T breast) [µM] | TGI (HS 578T breast) [µM] | GI50 (HT29 colon) [µM] | GI50 (NCI/ADR-RES ovarian) [µM] | TGI (NCI/ADR-RES ovarian) [µM]
Cc1ccc(NC(=O)/C(Cl)=C(/Cl)C(=O)O)cc1 | 5.75 | 31.8 | 37.6 | 45.8 | 35.8 | 53.4 | 35 | – | – | – | – | – | – | – | – | – | – | – | –
CC(=O)N1N=C2/C(=C/c3ccc(Cl)cc3)CC(C)CC2C1c1ccc(Cl)cc1 (stereo unspecified) | 62.6 | > 100 | > 100 | 33.9 | 59.6 | – | 91.5 | – | 19.7 | 25.2 | 43.4 | 15.3 | 20.4 | – | 20.6 | 72.1 | 21.7 | 21.7 | > 100
O=C(Nc1ccccc1)c1cc(S(=O)(=O)Nc2nc3ccccc3o2)c(SCc2ccccc2)cc1Cl | 28.5 | 44.9 | 43.3 | 47.7 | 58.7 | – | > 100 | – | 11.4 | 21.2 | 22.5 | 19.7 | 22.3 | – | 14.5 | 44.3 | 43 | 26.1 | 66.3
COc1ccc(C2=NN(C(=O)c3cc(OC)c(OC)c(OC)c3)C(c3ccc(N(C)C)cc3)C2)cc1 (stereo unspecified) | > 27.1 | > 100 | > 100 | 0.723 | 58.2 | – | – | – | 1.8 | 1 | 0.732 | 0.252 | 0.463 | – | 0.266 | 1.56 | 0.395 | 0.379 | –
O=C(COC(=O)c1cccc2c(=O)c3ccccc3[nH]c12)Nc1ccc(C(=O)O)cc1 | > 100 | > 100 | – | > 100 | > 100 | > 100 | > 100 | 95.6 | – | – | – | – | – | – | – | – | – | – | –
COc1ccc(C2C=C(c3ccc4c(c3)OCO4)Oc3c2c(=O)oc2ccccc32)cc1OC (stereo unspecified) | > 100 | > 46.2 | > 100 | > 45.5 | > 69.6 | – | > 85.5 | – | – | – | – | – | – | – | – | > 100 | – | – | > 100
CC1=CC(N2C(=O)C(C)=CC2O)NC1=O (stereo unspecified) | – | > 100 | > 100 | > 100 | – | > 100 | > 100 | – | – | – | – | – | – | – | – | – | – | – | –
O=C1CCSC2=C1SCc1sccc12 | > 100 | > 100 | > 100 | > 100 | > 100 | > 100 | – | > 100 | – | – | – | – | – | – | – | – | – | – | –
Cc1ccc(Cl)c(Nc2ccccc2C(=O)O)c1Cl | 90.1 | 51.4 | 98.9 | 46.8 | 65 | – | > 100 | – | 25.5 | 21.6 | 31.9 | 19.8 | 26 | – | 25.7 | > 100 | 35.6 | 26.3 | 80.9
Cc1cc(C(C)(C)C)cc(CNC2CCCCC2)c1O | 91 | 29.2 | 31.9 | 12.6 | 41.9 | – | 33.7 | – | – | – | – | – | – | – | – | 48.7 | – | – | 31.2
O=C(O)c1ccc(C(=O)O)c(C(=O)Nc2ccc3c(c2)C(=O)c2ccccc2-3)c1 | > 100 | > 100 | > 100 | > 100 | > 100 | – | > 100 | – | – | – | – | – | – | – | – | > 100 | – | – | > 100
Cn1c(NCC(O)CN2CCCC2)cc(=O)n(C)c1=O (stereo unspecified) | > 100 | > 100 | > 100 | > 100 | > 100 | – | > 100 | – | > 100 | > 100 | > 100 | > 100 | > 100 | – | > 100 | > 100 | > 100 | > 100 | > 100
CC1OC(OC2C(OC3CCC4(C)C(CCC5(C)C4CC=C4C6CC(C)(C)CCC6(C(=O)O)CCC45C)C3(C)CO)OCC(O)C2O)C(O)C(O)C1O (stereo unspecified) | 18.3 | 33.1 | 38.4 | 11.6 | 33.5 | – | 44.7 | – | – | – | – | – | – | – | – | 31.8 | – | – | 43.4
CCCCCCCCn1ccc2cc(NC(=O)Cn3cc(CN4CCCCC4)nn3)ccc21 | 7.74 | 6.34 | 3.71 | 3.06 | 3.97 | – | 4.28 | – | 2.01 | 2.35 | 1.78 | 1.46 | 1.89 | – | 1.96 | 4.84 | 2.02 | 2.92 | 10.2
O=S(=O)(/N=c1/scc(-c2ccccc2)n1-c1ccccc1)c1ccc(N2N=C3c4ccccc4CC3C2c2cccs2)cc1 (stereo unspecified) | > 100 | > 100 | > 100 | > 100 | > 100 | – | > 100 | – | 50.3 | 68 | 88.9 | 98.2 | > 100 | – | 60.6 | > 100 | 82 | > 100 | > 100
